The source of these data is patent publication US12605382B2, “Pharmaceutical composition for preventing, alleviating, or treating cancer containing 2,6-dichloro-4-(4-(4-hydroxycyclohexylamino)-7H- pyrrolo[2,3-d]pyrimidin-5-yl)phenol as active ingredient” (JBKLAB CO., LTD., priority 2021, dated 2026).

One assay relates to OVCAR-3. As to the kind of experiment: Cell viability alone and in combination with cisplatin. Format: cell-based, Human. As for the experimental part:
(§1) Human ovarian cancer cell lines (SKOV-3 and OVCAR-3) were treated with control (no treatment), 0.1 μM of the compound of Example 1, 1 μM of cisplatin, and 0.1 μM of the compound of Example 1/1 μM of cisplatin, and the cell viability of SKOV-3 and OVCAR-3 was confirmed.

The subject of another assay is SKOV-3. The assay is described as above. Format: cell-based, Human. As for the experimental part:
as §1

The test system of the next assay is Huh-7. As to the kind of experiment: Cell viability alone and in combination with sorafenib. Format: cell-based, Human. As for the experimental part:
(§2) Human liver cancer cell lines (SK Hep1 and Huh-7) were treated with control (no treatment), 0.1 μM of the compound of Example 1, 1 μM of sorafenib, and 0.1 μM of the compound of Example 1/1 μM of sorafenib, and the cell viability of SK Hep1 and Huh-7 was confirmed.

A further assay relates to SK Hep1. Described as above. Format: cell-based, Human. As to the method: as §2
The test system of the next assay is SK-OV-3. As to the kind of experiment: Cytotoxicity on cancer cell lines. As to conditions: SK-OV-3, dose dependently. Format: cell-based. As for the experimental part: (§3) The cytotoxicity of the compound of Example 1 against various cancer cell lines was evaluated through a process similar to the evaluation of liver cancer cell line inhibition described above. Etoposide, sold as an anticancer agent, was used as a control group drug.

The test system of another assay is SK-MEL-2. Nature of the assay: Cytotoxicity on cancer cell lines. Format: cell-based. As to conditions: SK-MEL-2, dose dependently. As to the method: as §3
A further assay concerns A549. As to the kind of experiment: Cytotoxicity on cancer cell lines. Format: cell-based. The following applies: A549, dose dependently. As for the experimental part: as §3
The next assay relates to HCT15. As to the kind of experiment: Cytotoxicity on cancer cell lines. Format: cell-based. The following applies: HCT15, dose dependently. As to the method: as §3
Assay [1] has as its system 4T1 murine triple negative breast cancer cells. Nature of the assay: Lung metastasis in triple-negative breast cancer allograft mouse model. Format: in vivo, BALB/c mice. As to conditions: 31st day. As to the method: (§4) 4T1 murine triple negative breast cancer cells (6×10^5 cells) were injected into the hind limbs of 6-week-old immune-competent BALB/c mice. Seven days after injection, after confirming consistent tumor growth, 10 mice from each group were selected and used in subsequent experiments.
(§5) The experimental groups consisted of a control group (no treatment), a radiotherapy group, a group treated with the compound of Example 1, and a group treated with a combination of the compound of Example 1 and radiotherapy. Each treatment was carried out for 31 days after tumor implantation.
(§6) Radiation treatment was performed using electron beams, and a total of 24 Gy was irradiated three times, once every two days for one week (Days 10, 12, and 14) (8 Gy×3). The compound of Example 1 was administered intravenously at a dose of 10 mg/kg once every 2 or 3 days (Days 10, 12, 14, 17, 19, and 21) for a total of 6 times over 2 weeks. On the days when radiation therapy and drug administration were conducted simultaneously, the compound of Example 1 was administered after confirming that the mice had recovered from anesthesia 4 hours after radiation therapy.
Mice were prepared in the same manner as in Example 8, and the lungs of the mice were removed on the 31st day after tumor injection, and the results of observing lung metastasis are shown in FIG. 13.

Assay [2] relates to tumor tissues (MDA-MB-231). As to the kind of experiment: H&E staining of tumor tissue, cell necrosis areas. Format: in vivo, BALB/c-nude mice. As to conditions: T4, T5 and T6 groups. As for the experimental part:
An experiment was performed to confirm the tumor necrosis effect of the compound of Example 1, the active ingredient of the pharmaceutical composition of the present invention, by measuring the number of apoptotic bodies in tumors and H&E staining of the tumor tissues in BALB/c-nude mice injected with cancer cell lines.
Then, the sections were stained with hematoxylin and eosin, and cell necrosis areas were observed.

The next assay relates to HepG2. As to the kind of experiment: WST-8 cell viability assay, hepatocellular carcinoma cell line. Format: cell-based. As to the method:
(§7) Specifically, the WST-8 assay to check the cell viability of HepG2 and Hep3B, which are hepatocellular carcinoma cell lines shown in FIGS. 7A-7C and 8A-8C, was performed as follows. HepG2 and Hep3B were each seeded in 96-well plates at the density of 5×10^3 cells/well and cultured for 24 hours. Then, Sorafenib and OPT-0139 were diluted stepwise at a twofold concentration and then treated to the plates at different concentrations, followed by culture for 24, 48, and 72 hours. […] of WST-8 solution was added to each well of the plate, and the absorbance was measured with a microplate reader using a 450 nm optical filter to measure the formazan produced by the reducing factors in living cells.
(§8) Therefore, the number of living cells could be measured by measuring absorbance.
(Formazan colour is commonly taken as a measure of viable cells.)

The subject of the next assay is Hep3B. Described as above. Format: cell-based. As for the experimental part:
as §7, §8

In assay [3] the test system is 4T1 murine triple negative breast cancer cells. Nature of the assay: Tumor size in triple-negative breast cancer allograft mouse model. Format: in vivo, BALB/c mice. As to conditions: 10 mg/kg intravenously. As to the method: as §4, §5, §6
On each treatment day, the length and width of the tumor were measured using a vernier caliper, and then the tumor volume (mm^3) was calculated using mathematical formula 1 below. Volume (mm^3)=length (mm)×{width (mm)}^2×0.5 [Mathematical Formula 1]

In the next assay the test system is breast cancer cell line. Nature of the assay: Formation of mammospheres in a breast cancer cell line. Format: cell-based.
[4] abbreviates: 0.1 μM Example 1 combined with 1 μM cisplatin.
[5] abbreviates: 0.1 μM Example 1 combined with 1 μM sorafenib.

Consider `Oc1c(Cl)cc(-c2c[nH]c3ncnc(N[C@H]4CC[C@H](O)CC4)c23)cc1Cl` [Example 1, (trans)-2,6-dichloro-4-(4-(4-hydroxycyclohexylamino)-7H-pyrrolo[2,3-d]pyrimidin-5-yl)phenol], for which the cell viability result in the assay with OVCAR-3 (setting [4]) was “further inhibited (synergistic effect)”; in the assay with OVCAR-3 (0.1 μM alone), “suppressed”; in the assay on SKOV-3 (setting [4]) it was “further inhibited (synergistic effect)”; with SKOV-3 (0.1 μM alone), “suppressed”; in the assay with Huh-7 (setting [5]), “further inhibited (synergistic effect)”; in the assay with Huh-7 (0.1 μM alone) it was “suppressed”. In addition, the cell viability result with SK Hep1 (setting [5]) was “further inhibited (synergistic effect)”; in the assay with SK Hep1 (0.1 μM alone), “suppressed”; in the assay on HepG2 (24, 48 and 72 hours) it was “decreased the cell viability dose and time dependently”; in the assay with Hep3B (24, 48 and 72 hours), “decreased the cell viability dose and time dependently”. Also, the “toxicity to cancer cell line” value in the assay on SK-OV-3, in the assay on SK-MEL-2, with A549 and in the assay with HCT15 was “excellent toxicity” each time. Moreover, in assay [1] (alone, 10 mg/kg intravenously), the “lung metastasis compared to control group” value was “significantly reduced metastasis”. In assay [1] (combined with radiation (8 Gy×3)), the “lung metastases compared to each administration alone” value is “significantly (P<0.05) reduced lung metastases”. Besides, in [2], the “areas of tissue necrosis compared to NC group (H&E)” value is listed as “more areas of tissue necrosis”. In addition, the “effect on cell viability compared to Sorafenib” value in the assay on HepG2 and in the assay with Hep3B was “remarkable effect compared to Sorafenib” throughout. Also, in [3] (alone, 6 times over 2 weeks, observed 31 days), the “tumor growth compared to control group” value is on record as “significantly delayed the tumor growth”. Further, in assay [3] (combined with radiation (8 Gy×3), 6 times), the “tumor growth compared to each administration alone” value was “superior inhibitory effect on the tumor growth”. Moreover, in the assay with breast cancer cell line, the formation of mammospheres result is given as “inhibits”.
